Assay results as given in patent US12060588B2, “Methods of editing DNA methylation” (Whitehead Institute for Biomedical Research, priority 2016, dated 2024).

Test system: Snrpn promoter (IG-DMR GFP/Pat reporter)
Assay: Ex vivo activation of the silenced IG-DMR-Snrpn-GFP reporter in mouse tail fibroblasts
Format: cell-based
From the text: FIGS. 7A-7H depict targeted ex vivo and in vivo DNA methylation editing by dCas9-Tet1 to activate a silenced GFP reporter. FIG. 7A provides a schematic diagram illustrating the experimental procedure for the ex vivo activation of a silenced GFP reporter in mouse fibroblast cells. Mouse tail fibroblast cells were derived from a genetically modified mouse line carrying a paternal IG-DMR-Snrpn-GFP allele (IG-DMRGFP/Pat) in the Dlk1-Dio3 locus. The IG-DMR-Snrpn promoter on the paternal allele is hypermethylated so that the GFP reporter is constitutively silenced. The cultured fibroblast cells were infected with lentiviral vectors expressing dCas9-Tet1 and gRNAs to demethylate the Snrpn promoter and activate the GFP reporter. Cells are subject to imaging and FACS analysis. […] Stained in red for Cherry, green for GFP and DAPI for nuclei. Scale bar: 100 um. Note that in order to turn on the Snrpn-GFP methylation reporter, both dCas9-Tet1 and target gRNA lentiviral vectors have to be transduced into the same cells. […] Brains were sliced and analyzed by immunohistochemical approaches. […] FIGS. 7G-7H provide quantification of the percentage of IG-DMR^GFP/Pat cells with GFP activation in Cherry (gRNAs) positive cells in the in vivo lentiviral delivery experiment in the brain (FIG. 7G) and in the skin epidemis (FIG. 7H). […]

Substance	GFP reporter activation in Cherry (gRNA) positive fibroblasts (with Snrpn target gRNAs, lentiviral transduction)	GFP reporter activation in Cherry (gRNA) positive fibroblasts (with a sc gRNA)
dC-dT: dCas9 fused to an inactive mutant form of Tet1 (H1672Y, D1674A), SEQ ID NO: 160	cannot turn on GFP reporter expression	–
dCas9-Tet1: catalytically inactive Cas9 (dCas9) fused through NLS to the Tet1 catalytic domain, SEQ ID NO: 159; lentivirally expressed with gRNAs	–	cannot turn on GFP reporter expression
